Laboratory results reported in patent US5430026A, “2'-deoxy-2',2'-difluoro (4-substituted pyrimidine) nucleosides, bicyclic derivatives,pharmaceutical compositions, and synthetic precursors” (Eli Lilly and Company, priority 1993, dated 1995).
≈ marks a conversion by molar mass, not a printed value.

Experiments:
[1] = system: HSV-2; experiment: plaque inhibition of HSV-2 in African green monkey kidney cells (BSC-1), Table 2; assay type: cell-based, Herpes simplex virus, type II; conditions: 72 hours at 37° C., IC50 less than 20 μg/ml is considered active; for IC50: Human alphaherpesvirus 2, BSC-1 cells, read-out: HSV-2 IC50 (concentration giving 50 percent growth inhibition; plaque inhibition)
[2] = system: HSV-1; experiment: plaque inhibition of HSV-1 in African green monkey kidney cells (BSC-1), Table 2; assay type: cell-based, Herpes simplex virus, type I; conditions: 72 hours at 37° C., IC50 less than 20 μg/ml is considered active; for IC50: Human alphaherpesvirus 1, BSC-1 cells, read-out: HSV-1 IC50 (concentration giving 50 percent growth inhibition; plaque inhibition)
[3] = system: human leukemia cells (CCRF-CEM cell line); experiment: growth inhibition (cytotoxicity) of human leukemia cells, Table 1; assay type: cell-based; conditions: IC50 less than 20 μg/ml is considered active; for IC50: Homo sapiens, read-out: IC50 (concentration giving 50 percent growth inhibition)
From the text: 38, 2886 (1978). The representative compounds of formula I employed in the present invention are cytotoxic as They inhibit the growth of rapidly dividing human leukemia cells (CCRF-CEM cell line). Table 1 below gives the results of testing several compounds representative of formula I. In Table 1, Column 1 gives the representative compound and Column 2 gives the IC50 (concentration giving 50 percent growth inhibition) in μg/ml.

Structure (SMILES)	IC50 [1] [µg/mL]	IC50 [2] [µg/mL]	IC50 [3] [µg/mL]	HSV-2 IC50 (concentration giving 50 percent growth inhibition; plaque inhibition) ([1]; BSC-1 cells) [µg/mL]	HSV-1 IC50 (concentration giving 50 percent growth inhibition; plaque inhibition) ([2]; BSC-1 cells) [µg/mL]	IC50 (concentration giving 50 percent growth inhibition) [3] [µg/mL]
O=c1nc(NO)ccn1[C@@H]1O[C@H](CO)[C@@H](O)C1(F)F [Example 1, β-1-(2-Oxo-4-hydroxyamino-1,2-dihydropyrimidin-1-yl)-2-deoxy-2,2-difluororibose]	1.07 (≈ 3.83 µM)	0.7 (≈ 2.51 µM)	0.086 (≈ 0.308 µM)			
O=c1n([C@@H]2O[C@H](CO)[C@@H](O)C2(F)F)ccc2nnnn12 [Example 2, 6-(2-deoxy-2,2-difluoro-β-D-ribofuranosyl)-1,2,3,4-tetrazolo[1,5-c]pyrimidine-5(6H) -one]	9.25 (≈ 32 µM)	8 (≈ 27.7 µM)	0.5 (≈ 1.73 µM)			
O=c1[nH]nc2ccn([C@@H]3O[C@H](CO)[C@@H](O)C3(F)F)c(=O)n12 [Example 4, 6-(2-deoxy-2,2-difluoro-β-D-ribofuranosyl)-1,2,4-triazolo[4,3c]pyrimidine-3,5(2H,6H)-dione]	4.9 (≈ 16.1 µM)	6 (≈ 19.7 µM)	0.2 (≈ 0.657 µM)			
NNc1ccn([C@@H]2O[C@H](CO)[C@@H](O)C2(F)F)c(=O)n1 [Example 5, β-1-(2-Oxo-4-hydrazino-1,2-dihydropyrimidin-1-yl)-2-deoxy-2,2-difluororibose]	4.35 (≈ 15.6 µM)	3.12 (≈ 11.2 µM)	0.077 (≈ 0.277 µM)			
CCOC(=O)Nc1ccn([C@@H]2O[C@H](CO)[C@@H](O)C2(F)F)c(=O)n1 [Example 6, β-1-(2-Oxo-4-aminocarboethoxy-1,2-dihydropyrimidin-1-yl)-2-deoxy-2,2-difluororibose]	0.58 (≈ 1.73 µM)	0.53 (≈ 1.58 µM)	0.051 (≈ 0.152 µM)			
O=c1nc(NCO)ccn1[C@@H]1O[C@H](CO)[C@@H](O)C1(F)F [Example 7, β-1-(2-Oxo-4-hydroxymethylamino-1,2-dihydropyrimidin-1-yl)-2-deoxy-2,2-difluororibose]				11.1	18.0	0.3 (≈ 1.02 µM)
CCOC(=O)CNc1ccn([C@@H]2O[C@H](CO)[C@@H](O)C2(F)F)c(=O)n1 [Example 8, β-1-(2-Oxo-4-N-glycineethyl ester-1,2-dihydropyrimidin-1-yl)-2-deoxy-2,2-difluororibose]			18.4 (≈ 52.7 µM)			
O=C(O)CNc1ccn([C@@H]2O[C@H](CO)[C@@H](O)C2(F)F)c(=O)n1 [Example 9, β-1-(2-Oxo-4-N-glycinyl-1,2-dihydropyrimidin-1yl)-2-deoxy-2,2-difluororibose]			0.4 (≈ 1.25 µM)			
CNNc1ccn([C@@H]2O[C@H](CO)[C@@H](O)C2(F)F)c(=O)n1 [Example 10, β-1-[2-Oxo-4-(2-methylhydrazino)-1,2-dihydropyrimidin-1-yl]-2-deoxy-2,2-difluororibose]			4.1 (≈ 14 µM)			
CCOC(=O)C(C)Nc1ccn([C@@H]2O[C@H](CO)[C@@H](O)C2(F)F)c(=O)n1 (stereo partly drawn) [Example 11, β-1-(2-oxo-4-N-alanineethyl ester-1,2-dihydropyrimidin-1-yl)-2-deoxy-2,2-difluororibose]						6.3 (≈ 17.3 µM)
